The source of these data is patent publication US20210100905A1, “APPLICATION OF COMPOUND OR TRADITIONAL CHINESE MEDICINE EXTRACT IN PREPARATION OF NUCLEIC ACID DELIVERY AGENT, AND RELATED PRODUCTS” (INSTITUTE OF BASIC MEDICAL SCIENCES CHINESE ACADEMY OF …, priority 2018, published 2021).

“Also recorded” adds a separate entry of the source.

Experiment [1] can be described thus: Luciferase reporter with 3′UTR of target gene after lipid-mediated small RNA delivery. The format is cell-based. The note with it: FIG. 13; mutated 3′UTR. (In general: Reporter assays use an easily measured gene product as a stand-in for the process of interest.)
The subject of experiment [2] is Luciferase with the wild-type 3′UTR in the target gene. The experiment is described as above. It is filed as cell-based. The note with it: FIG. 13; wild-type 3′UTR.
The test system of experiment [3] is A549 cells. Kind of experiment: Flow cytometry detection of the efficiency of nucleic acid delivery by lipid. It is filed as cell-based, human. As to conditions: boiling method, 6 hours co-incubation. How it is done: Experimental materials: A549 cells (purchased from the Cell Center of the Chinese Academy of Medical Sciences), FAM-sRNA (purchased from Ribobio Biotechnology Co., Ltd.), lipid No. 41, Accuri® C6 instrument (purchased from BD, USA).
Experimental methods: PGY-sRNA-6-FAM was dissolved in 100 μl water, mixed with 4 μl lipid, and prepared by boiling method. Then the mixture was dropped into A549 cells, and after 6 hours of co-incubation, the samples were collected for detection as follows: firstly wash three times with PBS, then digest with trypsin for 3 minutes and remove trypsin, wash with PBS again and then blow down the cells. The detection was performed using Accuri® C6 instrument.
Experimental Method: PGY-sRNA-6-FAM was dissolved in 100 μl water, and mixed with 4 μl lipid, and prepared into lipid-sRNA mixture by boiling method. Then, the mixture was dropped into A549 cells, and after 6 hours of co-incubation, the samples were collected and washed three times with PBS, then digested with trypsin into single cells, washed with re-suspended with PBS and then blown down for Accuri® C6 instrument detection.
Experimental Method: FAM-sRNA was dissolved in 100 μl water, and mixed with 4 μl lipid, prepared by boiling method. Then, the lipid-sRNA mixture was dropped into A549 cells, and after 6 hours of co-incubation, the samples were collected and washed three times with PBS, then digested into single cells with trypsin, re-suspended with PBS and then blown down for Accuri® C6 instrument detection.

In experiment [4] the test system is A549 cells. Kind of experiment: Confocal fluorescence microscopy of nucleic acid delivered by lipid. The format is cell-based, human. As to conditions: boiling method, 4 μl lipid, 6 hours co-incubation. The procedure: Experimental materials: A549 cells (purchased from the Cell Center of the Chinese Academy of Medical Sciences), PGY-sRNA-6-Cy3 (purchased from Ribobio Biotechnology Co., Ltd.), lipid No. 41, Zeiss LSM780 (purchased from Zeiss, Germany), Alexa Fluor® 488 phalloidin (purchased from Invitrogen, USA), DAPI (purchased from Invitrogen, USA), paraformaldehyde (purchased from sigma, USA).
Experimental methods: PGY-sRNA-6-FAM was dissolved in 100 μl water, mixed with 4 μl lipid, and prepared by the boiling method. Then the mixture was dropped into A549 cells, and after 6 hours of co-incubation, the samples were washed three times with PBS, fixed with 4% paraformaldehyde, washed three times with PBS, stained with Alexa Fluor® 488 phalloidin for 30 min, washed 3 times with PBS, and stained with DAPI for 5 min, washed with PBS, and then sealed.
Experimental method: PGY-sRNA-6-FAM was dissolved in 100 μl water, and mixed with 4 μl lipid, and prepared by boiling method. Then, the mixture was dropped into A549 cells, and after 6 hours of co-incubation, the samples were washed three times with PBS, fixed with 4% paraformaldehyde, washed three times with PBS, stained with Alexa Fluor® 488 phalloidin for 30 min, washed 3 times with PBS, and stained with DAPI for 5 min, PBS washed, and then sealed.

Experiment [5] is described as follows: In vivo delivery of single-stranded sRNA by single lipid, gavage (Example 11). Further details: species or system C57 mice. The note with it: 10 μL lipid, sRNA 1 nmol each, 12 hours; for delivery of sRNA single-stranded nucleic acid into mouse blood: FIGS. 108, 112-115, oral (gavage), heating method, vs POPC and Lipofectamine RNAiMAX. How it is done:
1. Experimental animals: C57 mice, male, approximately 6 weeks old.
2. Manufacture of lipid mixture: the prepration was conducted on the basis of a dose of 10 μ1 lipid-1 nmol sRNA per mouse as follows: dissolved 1 nmol of each sRNA in 500 μl DEPC water, added 10 μl of the corresponding lipid, pipette to mix thoroughly, and then naturally cooled down after water bath for 15 min at 90° C., and administered via gavage.
1) Tissue sampling and extraction of RNA: 6 hours after gavage in mice, took 500 μl of blood from the eyeball, added 1.5 ml Trizol Reagent LS to thoroughly mix and lyse, added 3 ml Trizol Reagent (purchased from Invitrogen) to the tissue samples and homogenized until complete lysis. Tissues sampled: live/stomach/small intestine.
2) Reverse transcription of sRNA to cDNA: Reverse Transcription Kit (High-Capacity cDNA Reverse Transcription Kits, Applied Biosystems, cat. no. 4368813), was used to reverse transcribe the total RNA to cDNA, and the reverse system was as follows: template RNA (150 ng/μL) 10 μL, 10× RT buffer, 2.0 μL, 25× dNTP Mix (100 mM) 0.8 μL, random primers 2.0 μL, the Multi Scribe™ reverse Transcriptase 1.0 μL, RNase inhibitor 1.0 μL, nuclease-free H2O 3.2 μL. After a brief centrifugation, the reaction was loaded in a PCR reactor. The reaction conditions were as follows: (1) 25° C., 10 min; (2) 37° C., 120 min; (3) 85° C., 5 min; (4) 4° C., termination of the reaction. After the reaction, 20 μL RNase-free ddH2O was added to make up the final volume to 40 μL.
LightCycler 480 fluorescence quantitative PCR instrumentwas used, and the PCR reaction conditions were: 95° C. , 5 min for pre-denaturation, followed by the PCR amplification cycle: (1) 95° C., 10 s; (2) 55° C., 10 s; (3) 72° C., 20 s; a total of 40 cycles; 40° C. for 10 s in the end to cool down. The forward primer and reverse primer of the amplification reaction were designed and synthesized by Beijing Qing Ke New Industrial Biotechnology Co., Ltd. (U6 F primer: GCGCGTCGTGAAGCGTTC (SEQ ID NO: 23), U6 R primer: GTGCAGGGTCCGAGGT (SEQ ID NO: 24)).
3) The relative expression amount was calculated by the 2-ΔCt method.
5) Treatment group of single lipid and nucleic acid mixture: a mixture of 10 μL of single lipid (No. 41) with single-stranded sRNA mixure solution (PGY-sRNA-23, PGY-sRNA-26 and PGY-sRNA-32, 1 nmol each) was treated by heating method and then given to mice via intragastric administration.
2. 12 hours after intragastric administration, the blood was taken from the eyeball, and various tissues (liver/stomach/small intestine) was sampled. TRIzol was used for full lysis and the RNA was extracted to detect the amount of entry.

For the compound `CCCCC/C=C\C/C=C\CCCCCCCC(=O)O[C@H](COC(=O)CCCCCCCCCCCCCCCCC)COP(=O)([O-])OCC[N+](C)(C)C` [No. 11, trimethyl(2-{[(2R)-2-[(9Z, 12Z)-octadeca-9,12-dienoyloxy]-3-(octadecanoyloxy)propyl-phosphonato]oxy}ethyl) azanium], in experiment [1], the “action on Luciferase with mutated 3′UTR” value is reported as “did not act on the mutated 3′UTR of their target genes”. Also, the “relative expression level of Luciferase with wild-type 3′UTR” value in experiment [2] is listed as “reduced the relative expression level of the Luciferase with the wild-type 3′UTR in the target gene”.
The corresponding values for `CCCCC/C=C\C/C=C\CCCCCCCC(=O)O[C@H](COC(=O)CCCCCCCCCCCCCCC)COP(=O)([O-])OCC[N+](C)(C)C` [No. 12, (2-{[(2R)-3-(hexadecanoyloxy)-2-[(9Z,12Z)-octadeca-9,12-dienoyloxy]propylphosphonato]oxy}ethyl) trimethylazanium] are “did not act on the mutated 3′UTR of their target genes” and “reduced the relative expression level of the Luciferase with the wild-type 3′UTR in the target gene”.
In the case of `CCCCCC/C=C\CCCCCCCC(=O)O[C@H](COC(=O)CCCCCCCCCCCCCCC)COP(=O)(O)OCCN` [No. 38, (2-aminoethoxy) [(2R)-2-[(9Z)-hexadec-9-enoyloxy]-3-(hexadecanoyloxy)propoxy] phosphinic acid], the “efficiency in delivering PGY-sRNA-6 single-stranded RNA (flow cytometry)” value in experiment [3] (4 μl lipid) stood at 72.5%. Also, the “efficiency of PGY-sRNA-6 single-stranded RNA delivery relative to positive control RNAiMAX (flow cytometry)” value in experiment [3] is on record as “close to that of the positive control RNAiMAX”. Moreover, the “entry of PGY-sRNA-6-Cy3 observed under confocal microscopy” value (“entry of PGY-sRNA-6-Cy3 observed” below) in experiment [4] was “could effectively deliver double-stranded nucleic acid into A549 cells”. Further, the “delivery of sRNA single-stranded nucleic acid into mouse blood” value in experiment [5] was “could effectively deliver sRNA single-stranded nucleic acid into mouse blood via oral administration; also recorded: the delivery effect was better than POPC and Lipofectamine RNAiMAX”.
`CCCCCCCC/C=C\CCCCCCCCCCCC(=O)O[C@H](COC(=O)CCCCCCCCCCCCCCC)COP(=O)(O)OCCN` [No. 40, (2-aminoethoxy) [(2R)-2-[(13Z)-docos-13-enoyloxy]-3-(hexadecanoyloxy)propoxy] phosphinic acid]: the “entry of PGY-sRNA-6-Cy3 observed” value in experiment [4] is recorded as “could effectively deliver single-stranded RNA into A549 cells”. For the same compound, the “delivery of sRNA single-stranded nucleic acid into mouse blood” value in experiment [5] is “could effectively deliver sRNA single-stranded nucleic acid into mouse blood via oral administration; also recorded: the delivery effect was better than POPC and Lipofectamine RNAiMAX”.
`CCCCCCCCCCCCCCCCCCC[C@@H](O)[C@@H](N)CO` [No. 41, Sphinganine (d22:0)]: in experiment [3] (4 μl lipid), the “efficiency in delivering PGY-sRNA-6 double-stranded RNA (flow cytometry)” value is recorded as 96.7% and the “efficiency in delivering PGY-sRNA-6 single-stranded RNA (flow cytometry)” value was 94.1%. The “entry of PGY-sRNA-6-Cy3 observed” value in experiment [4] was “could effectively deliver double-stranded nucleic acid into A549 cells”. Besides, in experiment [5] (FIG. 109, gavage), the “delivery of sRNA single-stranded nucleic acid into mouse stomach” value is “could effectively deliver sRNA single-stranded nucleic acid into the mouse stomach via oral administration to protect sRNA from degradation”. The “delivery of sRNA single-stranded nucleic acid into mouse small intestine” value in experiment [5] (FIG. 110, gavage) is “could effectively deliver sRNA single-stranded nucleic acid into the mouse small intestine via oral administration to protect sRNA from degradation”. For the same compound, the “delivery of sRNA single-stranded nucleic acid into mouse liver” value in experiment [5] (FIG. 111, gavage) is “could effectively deliver sRNA single-stranded nucleic acid into the mouse liver via oral administration to protect sRNA from degradation”. The “delivery of sRNA single-stranded nucleic acid into mouse blood” value in experiment [5] is “could effectively deliver sRNA single-stranded nucleic acid into the mouse blood via oral administration; also recorded: the delivery effect was better than POPC and Lipofectamine RNAiMAX”.
For `CCCCCCCC/C=C\CCCCCCCCCCCCCC(=O)O[C@H](COC(=O)CCCCCCCCCCCCCC)COP(=O)(O)OCCN` [No. 64, 1-pentadecanoyl-2-nervonoyl-sn-glycero-3-phospho-ethanolamine], the “efficiency of PGY-sRNA-6 single-stranded RNA delivery relative to positive control RNAiMAX (flow cytometry)” value in experiment [3] is reported as “½”. The “entry of PGY-sRNA-6-Cy3 observed” value in experiment [4] is given as “could effectively deliver single-stranded RNA into A549 cells”. Moreover, the “delivery of sRNA single-stranded nucleic acid into mouse blood” value in experiment [5] was “could effectively deliver sRNA single-stranded nucleic acid into mouse blood via oral administration; also recorded: the delivery effect was better than POPC and Lipofectamine RNAiMAX”.
